Reference: patent publication US6355799B1, “Substituted benzene compounds, process for their preparation, and herbicidal and defoliant compositions containing them” (ISK Americas Incorporated, priority 1997, dated 2002)

Experiments:
Assay type in all cases: in vivo
[1] = test system: redroot pigweed (Amaranthus retroflexus, AMARE); experiment: Pre-emerge test, greenhouse herbicide activity screening; settings: pre-emerge, rated 14 days after application, 0 = no damage, 100 = complete death
Procedure, shortened: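 Rating: 0–100 visual injury, 14 DAA. Application: acetone, 187 l/ha, 15–1000 g ai/ha, flat-fan track sprayer with nozzle 40–45 cm above soil or canopy. Post-emerge runs used 0.25% v/v surfactant on 2–3 leaf plants.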

[2] = test system: barnyardgrass (Echinochloa crus-galli, ECHCG); experiment: as above; settings: pre-emerge, rated 14 days after application, 0 = no damage, 100 = complete death
Procedure, shortened: (§1)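 Applied at 15–1000 g ai/ha from acetone in 187 l/ha spray volume. Post-emergence applications included 0.25% v/v non-ionic surfactant and reached plants sown 8–21 days before. Pre-emergence applications were incorporated by surface watering. Efficacy or crop damage was rated on a 0–100 scale after 14 days.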

[3] = test system: common ragweed (Ambrosia artemisizfolia L., AMBEL); experiment: as above; settings: pre-emerge, rated 14 days after application, 0 = no damage, 100 = complete death
Procedure, shortened: as §1

[4] = test system: green foxtail (Setaria viridis, SETVI); experiment: as above; settings: pre-emerge, rated 14 days after application, 0 = no damage, 100 = complete death
Procedure, shortened: as §1

[5] = test system: ivyleaf morningglory (Ipomoea hederacea, IPOHE); experiment: as above; settings: pre-emerge, rated 14 days after application, 0 = no damage, 100 = complete death
Procedure, shortened: as §1

[6] = test system: johnsongrass (Sorghum halepense, SORHA); experiment: as above; settings: pre-emerge, rated 14 days after application, 0 = no damage, 100 = complete death
Procedure, shortened: as §1

[7] = test system: lambsquarters (Chenopodium album, CHEAL); experiment: as above; settings: pre-emerge, rated 14 days after application, 0 = no damage, 100 = complete death
Procedure, shortened: as §1

[8] = test system: large crabgrass (Digitaria sanguinalis, DIGSA); experiment: as above; settings: pre-emerge, rated 14 days after application, 0 = no damage, 100 = complete death
Procedure, shortened: as §1

[9] = test system: sicklepod (Cassia obtusifolia, CASOB); experiment: as above; settings: pre-emerge, rated 14 days after application, 0 = no damage, 100 = complete death
Procedure, shortened: as §1

[10] = test system: velvetleaf (Abutilon theophrasti, ABUTH); experiment: as above; settings: pre-emerge, rated 14 days after application, 0 = no damage, 100 = complete death
Procedure, shortened: as §1

[11] = test system: field corn (Zea mays L., var. Dekalb 535, CORN); experiment: Pre-emerge test, crop safety; settings: pre-emerge, rated 14 days after application, 0 = no damage, 100 = complete death
Procedure, shortened: (§2)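 Herbicidal damage is scored 0 (none) to 100 (complete plant death) two weeks after a simulated field spray. Rates span 15–1000 g ai/ha, delivered in acetone at 187 l/ha. For post-emergence treatments, plants have 2–3 leaves and the spray carries 0.25% v/v non-ionic surfactant.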

[12] = test system: upland rice (Oryza sp., var. Tebonnet, RICE); experiment: Pre-emerge test, crop safety; settings: pre-emerge, rated 14 days after application, 0 = no damage, 100 = complete death
Procedure, shortened: as §2

[13] = test system: barnyardgrass (Echinochloa crus-galli, ECHCG); experiment: Post-emerge test, greenhouse herbicide activity screening; settings: phytotoxicity rating 0-100 (0 no damage, 100 complete death), 14 days after application
Procedure, shortened: (§3)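 Compounds in acetone were track-sprayed at 15–1000 g ai/ha: pre-emergence onto soil sown the previous day, then top-watered to incorporate and later bottom-watered; post-emergence onto 2–3 leaf plants with 0.25% v/v surfactant, bottom-watered only. Ratings on a 0–100 phytotoxicity scale were taken at day 14.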

[14] = test system: common ragweed (Ambrosia artemisizfolia L., AMBEL); experiment: as above; settings: phytotoxicity rating 0-100 (0 no damage, 100 complete death), 14 days after application
Procedure, shortened: as §3

[15] = test system: green foxtail (Setaria viridis, SETVI); experiment: as above; settings: phytotoxicity rating 0-100 (0 no damage, 100 complete death), 14 days after application
Procedure, shortened: as §3

[16] = test system: ivyleaf morningglory (Ipomoea hederacea, IPOHE); experiment: as above; settings: phytotoxicity rating 0-100 (0 no damage, 100 complete death), 14 days after application
Procedure, shortened: as §3

[17] = test system: johnsongrass (Sorghum halepense, SORHA); experiment: as above; settings: phytotoxicity rating 0-100 (0 no damage, 100 complete death), 14 days after application
Procedure, shortened: as §3

[18] = test system: lambsquarters (Chenopodium album, CHEAL); experiment: as above; settings: phytotoxicity rating 0-100 (0 no damage, 100 complete death), 14 days after application
Procedure, shortened: as §3

[19] = test system: large crabgrass (Digitaria sanguinalis, DIGSA); experiment: as above; settings: phytotoxicity rating 0-100 (0 no damage, 100 complete death), 14 days after application
Procedure, shortened: as §3

[20] = test system: redroot pigweed (Amaranthus retroflexus, AMARE); experiment: as above; settings: phytotoxicity rating 0-100 (0 no damage, 100 complete death), 14 days after application
Procedure, shortened: as §3

[21] = test system: sicklepod (Cassia obtusifolia, CASOB); experiment: as above; settings: phytotoxicity rating 0-100 (0 no damage, 100 complete death), 14 days after application
Procedure, shortened: as §3

[22] = test system: velvetleaf (Abutilon theophrasti, ABUTH); experiment: as above; settings: phytotoxicity rating 0-100 (0 no damage, 100 complete death), 14 days after application
Procedure, shortened: as §3

[23] = test system: field corn (Zea mays L., var. Dekalb 535, CORN); experiment: Post-emerge test, crop safety; settings: phytotoxicity rating 0-100 (0 no damage, 100 complete death), 14 days after application
Procedure, shortened: as §1

[24] = test system: upland rice (Oryza sp., var. Tebonnet, RICE); experiment: Post-emerge test, crop safety; settings: phytotoxicity rating 0-100 (0 no damage, 100 complete death), 14 days after application
Procedure, shortened: as §1

SMILES: COc1c(Cl)cc(F)c(-n2c(=O)cc(C(F)(F)F)n(C)c2=O)c1NC(=O)c1ccc(C)cc1 [2-24]
- Pre-emerge Herbicidal Activity AMARE (phytotoxicity rating, scale 0-100) ([1]; 63 g ai/ha): 100
- Pre-emerge Herbicidal Activity AMARE (phytotoxicity rating, scale 0-100) ([1]; 250 g ai/ha): 100
- Pre-emerge Herbicidal Activity ECHCG (phytotoxicity rating, scale 0-100) ([2]; 63 g ai/ha): 95
- Pre-emerge Herbicidal Activity ECHCG (phytotoxicity rating, scale 0-100) ([2]; 250 g ai/ha): 100
- Pre-emerge Herbicidal Activity AMBEL (phytotoxicity rating, scale 0-100) ([3]; 63 g ai/ha): 100
- Pre-emerge Herbicidal Activity AMBEL (phytotoxicity rating, scale 0-100) ([3]; 250 g ai/ha): 100
- Pre-emerge Herbicidal Activity SETVI (phytotoxicity rating, scale 0-100) ([4]; 63 g ai/ha): 100
- Pre-emerge Herbicidal Activity SETVI (phytotoxicity rating, scale 0-100) ([4]; 250 g ai/ha): 100
- Pre-emerge Herbicidal Activity IPOHE (phytotoxicity rating, scale 0-100) ([5]; 63 g ai/ha): 100
- Pre-emerge Herbicidal Activity IPOHE (phytotoxicity rating, scale 0-100) ([5]; 250 g ai/ha): 100
- Pre-emerge Herbicidal Activity SORHA (phytotoxicity rating, scale 0-100) ([6]; 63 g ai/ha): 95
- Pre-emerge Herbicidal Activity SORHA (phytotoxicity rating, scale 0-100) ([6]; 250 g ai/ha): 100
- Pre-emerge Herbicidal Activity CHEAL (phytotoxicity rating, scale 0-100) ([7]; 63 g ai/ha): 100
- Pre-emerge Herbicidal Activity CHEAL (phytotoxicity rating, scale 0-100) ([7]; 250 g ai/ha): 100
- Pre-emerge Herbicidal Activity DIGSA (phytotoxicity rating, scale 0-100) ([8]; 63 g ai/ha): 100
- Pre-emerge Herbicidal Activity DIGSA (phytotoxicity rating, scale 0-100) ([8]; 250 g ai/ha): 100
- Pre-emerge Herbicidal Activity CASOB (phytotoxicity rating, scale 0-100) ([9]; 63 g ai/ha): 90
- Pre-emerge Herbicidal Activity CASOB (phytotoxicity rating, scale 0-100) ([9]; 250 g ai/ha): 100
- Pre-emerge Herbicidal Activity ABUTH (phytotoxicity rating, scale 0-100) ([10]; 63 g ai/ha): 100
- Pre-emerge Herbicidal Activity ABUTH (phytotoxicity rating, scale 0-100) ([10]; 250 g ai/ha): 100
- Pre-emerge crop damage CORN (phytotoxicity rating, scale 0-100) ([11]; 63 g ai/ha): 95
- Pre-emerge crop damage CORN (phytotoxicity rating, scale 0-100) ([11]; 250 g ai/ha): 98
- Pre-emerge crop damage RICE (phytotoxicity rating, scale 0-100) ([12]; 63 g ai/ha): 90
- Pre-emerge crop damage RICE (phytotoxicity rating, scale 0-100) ([12]; 250 g ai/ha): 99
- Post-emerge Herbicidal Activity ECHCG ([13]; 63 g ai/ha): 70
- Post-emerge Herbicidal Activity ECHCG ([13]; 250 g ai/ha): 95
- Post-emerge Herbicidal Activity AMBEL ([14]; 63 g ai/ha): 100
- Post-emerge Herbicidal Activity AMBEL ([14]; 250 g ai/ha): 100
- Post-emerge Herbicidal Activity SETVI ([15]; 63 g ai/ha): 20
- Post-emerge Herbicidal Activity SETVI ([15]; 250 g ai/ha): 70
- Post-emerge Herbicidal Activity IPOHE ([16]; 63 g ai/ha): 100
- Post-emerge Herbicidal Activity IPOHE ([16]; 250 g ai/ha): 100
- Post-emerge Herbicidal Activity SORHA ([17]; 63 g ai/ha): 60
- Post-emerge Herbicidal Activity SORHA ([17]; 250 g ai/ha): 90
- Post-emerge Herbicidal Activity CHEAL ([18]; 63 g ai/ha): 99
- Post-emerge Herbicidal Activity CHEAL ([18]; 250 g ai/ha): 100
- Post-emerge Herbicidal Activity DIGSA ([19]; 63 g ai/ha): 10
- Post-emerge Herbicidal Activity DIGSA ([19]; 250 g ai/ha): 50
- Post-emerge Herbicidal Activity AMARE ([20]; 63 g ai/ha): 100
- Post-emerge Herbicidal Activity AMARE ([20]; 250 g ai/ha): 100
- Post-emerge Herbicidal Activity CASOB ([21]; 63 g ai/ha): 100
- Post-emerge Herbicidal Activity CASOB ([21]; 250 g ai/ha): 100
- Post-emerge Herbicidal Activity ABUTH ([22]; 63 g ai/ha): 100
- Post-emerge Herbicidal Activity ABUTH ([22]; 250 g ai/ha): 100
- Post-emerge Herbicidal Activity CORN (crop damage) ([23]; 63 g ai/ha): 70
- Post-emerge Herbicidal Activity CORN (crop damage) ([23]; 250 g ai/ha): 95
- Post-emerge Herbicidal Activity RICE (crop damage) ([24]; 63 g ai/ha): 70
- Post-emerge Herbicidal Activity RICE (crop damage) ([24]; 250 g ai/ha): 90
